Laboratory results from article PMC6813295, “A tumour-selective cascade activatable self-detained system for drug delivery and cancer imaging” (Nature Communications, 2019).
Where a SMILES comes first, the peptide text is derived from it. The star is where a group is joined. X1 = CC1(C)C(=CC=C2CCCC(C=CC3=[N+](CCCCCC(=O)O)c4ccccc4C3(C)C)=C2*)N(CCCCCC(=O)O)c2ccccc21

Key:
H460 and 293T cells = experiment: Confocal imaging of accumulation and retention in cells, H460 versus 293T; assay type: cell-based, human; details: 50 μM for 1 h, washed, at 6 h (maximum difference), cytoplasm, n = 15
Method: Fig. 3 Recognition and self-assembly of molecule 1 in cells. a Western blots of XIAP expression in H460 and 293T cells. b Confocal images of H460 cells treated with or without energy-dependent inhibitor (oligomycin A, 20 μM) for 1 h, and followed by washing with PBS and treated with the molecule 1 (50 μM) for 1 h. c Statistical analysis of average fluorescence intensities in the cytoplasm of H460 cells from confocal images. Data are presented as the mean ± s.d. (n = 100). ***p < 0.001, p values were performed with one-way ANOVA followed by post hoc Tukey’s test for the indicated comparison. d Confocal images of time-dependent monitoring of H460 and 293T cells treated with the molecule 1 (50 μM) for 1 h followed by washing with PBS and replacing the medium and a further incubation up to 48 h. e Statistical analysis of average fluorescence intensities in the cytoplasm of H460 and 293T cells from confocal images with a timescale range of 1–48 h. Data are presented as the mean ± s.d. […] Finally, incubate up to 6 h and imaging by confocal microscope. g Schematic diagram illustrates the process of NBD fluorescence illumination. h Confocal images of H460 cells treatment with molecule 1-NBD (50 μM) for 1 h. i TEM images of ultrathin section of H460 cells treated with molecule I-1 (50 μM) and without the molecule I-1 for up to 12 h. […]

[1] = test system: human bladder tumour tissues; experiment: Ex vivo NIR imaging of human intact bladder after intravesical instillation; details: 70 mL of 50 μM in PBS pH 7.4 instilled, 37 °C, 1 h
Method: After obtaining approval from the institutional review board of the Fourth Hospital of Harbin Medical University, patients with urothelial carcinoma were scheduled for radical cystectomy and appropriate informed consent was obtained. Fresh intact bladder was obtained from the operating room immediately after radical cystectomy and irrigated three times for 5 min via an 18-French (Fr) urinary catheter with sterile saline, and 70 mL of molecule 1 in PBS (50 μM, pH 7.4) was instilled and incubated at 37 °C for 1 h. Then, the unbound molecule 1 was removed by irrigating with sterile saline three times for 5 min, the bladder was opened longitudinally on the anterior wall. Ex vivo fluorescent and white light imaging of the bladder cancer was performed using a near infrared imaging system. To explore the correlation between appearance of fluorescent signal and cancer lesions, standard pathological analysis of represented fluorescent spots were carried out after imaging.

CC[C@H](C)[C@H](NC(=O)[C@@H]1CCCN1C(=O)[C@@H](NC(=O)[C@H](C)N)C(C)C)C(=O)N[C@@H](C)C(=O)N[C@@H](CCC(N)=O)C(=O)N[C@@H](CCCCN)C(=O)N[C@@H](CC(=O)O)C(=O)N[C@@H](CCC(=O)O)C(=O)N[C@H](C(=O)N[C@@H](CC(=O)O)C(=O)N[C@@H](CCCCN)C(=O)N[C@@H](CC(C)C)C(=O)N[C@H](C(=O)N[C@@H](Cc1ccccc1)C(=O)N[C@@H](Cc1ccccc1)C(=O)N[C@@H](C)C(=O)N[C@@H](CCC(=O)O)C(=O)N[C@@H](CSC1=C(C=CC2=[N+](CCCCCC(=O)O)c3ccccc3C2(C)C)CCCC1=CC=C1N(CCCCCC(=O)O)c2ccccc2C1(C)C)C(=O)NCC(=O)O)C(C)C)C(C)C [molecule 1] (H-AVPIAQKDEVDKLVFFAEC(X1)G-OH)
fluorescent intensity in H460 cells relative to 293T cells (H460 and 293T cells): fivefold higher | signal-to-noise ratio of the tumour area versus surrounding normal tissue [1]: up to 2.7 times
